Laboratory results as given in paper PMC7614687, “Modulation of the substrate specificity of the kinase PDK1 by distinct conformations of the full-length protein*” (Science signaling, 2023).
“And” between values parts separate entries of the source, which are not always exact repeats. Identical values can stand only once. Like-named read-outs stand apart in the source and are kept apart here.

Tests used:
[1] = target: T1, PDK1 (Homo sapiens, UniProt O15530); assay: Thermo Fisher "PDK1 Direct" assay (peptide Ser/Thr 07, FRET readout); type: biochemical; settings: for Hill slope, PDK1 direct / IC50: 10-point titration
T1 sequence (O15530 1-556): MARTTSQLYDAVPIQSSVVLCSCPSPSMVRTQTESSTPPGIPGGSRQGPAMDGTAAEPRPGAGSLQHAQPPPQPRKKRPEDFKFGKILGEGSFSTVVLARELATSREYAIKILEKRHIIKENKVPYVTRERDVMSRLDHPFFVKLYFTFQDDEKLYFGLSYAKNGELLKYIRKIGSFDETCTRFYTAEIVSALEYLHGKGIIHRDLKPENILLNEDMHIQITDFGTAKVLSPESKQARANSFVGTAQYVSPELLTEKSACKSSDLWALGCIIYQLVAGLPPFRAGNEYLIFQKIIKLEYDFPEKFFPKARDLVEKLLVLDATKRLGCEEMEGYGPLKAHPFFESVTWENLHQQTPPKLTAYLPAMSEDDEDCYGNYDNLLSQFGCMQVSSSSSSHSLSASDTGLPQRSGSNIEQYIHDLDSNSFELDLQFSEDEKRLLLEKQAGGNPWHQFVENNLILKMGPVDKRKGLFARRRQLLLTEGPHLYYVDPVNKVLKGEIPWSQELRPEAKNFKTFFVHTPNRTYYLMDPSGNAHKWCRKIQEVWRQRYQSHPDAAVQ

[2] = target: T2, His-PDK1_1-556 and GST-PDK1_360-556 (Homo sapiens, UniProt O15530); assay: AlphaScreen PDK1 dimerization assay His-PDK1_1-556 / GST-PDK1_360-556; type: binding
T2 construct: made in house; host or cells: Sf9 insect cells (His-PDK1_1-556); HEK293 cells (GST-PDK1_360-556)
T2 sequence (O15530 1-556): T1 sequence (O15530 1-556)
Protocol: (§1) The AlphaScreen® assay was performed following the general guidelines from the manufacturer (Perkin Elmer) ([29]). In short, the assay was performed in a final volume of 25 μl in white 384-well microtiter plates (Greiner) in a standard buffer containing 50 mM Tris-HCl (pH 7.4), 100 mM NaCl, 2 mM DTT, 0.01% (v/v) Tween-20 and 0.1% (w/v) BSA, with the addition of 5 μl of beads (anti-GST coated acceptor beads and streptavidin-coated donor beads; nickel chelate-coated acceptor beads and streptavidin-coated donor beads; or nickel chelate-coated acceptor beads and GSH-coated donor beads, 20 μg/ml final concentrations for each bead type). AlphaScreen assays for His-tagged proteins and GST-fusion proteins were performed using nickel chelate-coated acceptor beads and GSH-coated donor beads; alphascreen assays for His-tagged proteins and biotinylated molecules were performed using nickel chelate-coated acceptor beads and streptavidin-coated donor beads; alphascreen assays for GST-fusion proteins and biotinylated molecules were performed using anti-GST coated acceptor beads and streptavidin-coated donor beads (Perkin Elmer).
The conditions for each AlphaScreen assay were identified in cross-titration experiments for each interaction to choose the ideal pair of concentrations within the linear range of the interactions. […] His-PDK1 and GST-fusion protein in the presence or absence of the different compounds were incubated in the dark for 60 min at room temperature and the emission of light from the acceptor beads was measured in an EnVision reader (Perkin Elmer) or Spark plate reader (Tecan). […]

[3] = target: T3, PDK1_1-556 (Homo sapiens, UniProt O15530); assay: Differential scanning fluorimetry, thermal stability of PDK1_1-556; type: binding; settings: PDK1 1 μM
T3 construct: effect of HYG8 on the thermal stability (ΔTm) of PDK1_1-556 (H) and PDK1_50-359 (I); His (N); made in house; host or cells: Sf9 insect cells (baculovirus)
T3 sequence (O15530 1-556): T1 sequence (O15530 1-556)
Protocol: The thermal stability of PDK1 was assessed by monitoring the unfolding of PDK1 by the increase in the fluorescence of SYPRO Orange (Invitrogen) using a real-time PCR device (StepOnePlus, Applied Biosystems and BioRad CFX96) following a previously described protocol ([70]). The reactions were performed in a final volume of 10 μl in white 96-well PCR microtiter plates (Greiner) and contained 1 μM PDK1, 10 mM HEPES (pH 7.5), 150 mM NaCl, 1/1000 SYPRO Orange and 1 mM dithiothreitol. For valsartan, the assay buffer was modified to exclude NaCl. PIFtide or compounds (at a final DMSO concentration of 1%) were added to this reaction mixture. The temperature gradient was performed in steps of 0.3 °C in the range from 25 to 70 °C. To calculate the Tm values, data were exported to GraphPad Prism and curves fitted to a Boltzmann sigmoidal equation with an acceptable confidence interval of 95%. Statistical analysis was performed with Infostat software (http://www.infostat.com.ar) and GraphPad Prism by first verifying a normal distribution of pooled residuals (Shapiro-Wilks test) and homogeneity of variance (F test), and then performing a one-way ANOVA followed by the post hoc comparisons test indicated in each figure legend.

[4] = target: T4, GST-PDK1_1-556 (Homo sapiens, UniProt O15530); assay: AlphaScreen biotin-PIP3 / GST-PDK1_1-556 displacement; type: binding; settings: PIP3 20 nM, GST-PDK1 3 nM
T4 construct: made in house; host or cells: HEK293 cells (transient transfection of pEBG2T); peptide synthesized by Pepscan
T4 sequence (O15530 1-556): T1 sequence (O15530 1-556)
Protocol: as §1
The conditions for each AlphaScreen assay were identified in cross-titration experiments for each interaction to choose the ideal pair of concentrations within the linear range of the interactions. As required, the standard conditions were modified to use less material, to increase binding of the interacting molecules, to lower background signal, and so on. His-PDK1 and GST-fusion protein in the presence or absence of the different compounds were incubated in the dark for 60 min at room temperature and the emission of light from the acceptor beads was measured in an EnVision reader (Perkin Elmer) or Spark plate reader (Tecan). AlphaScreen assays were performed at least twice, although most experiments were performed multiple times by different researchers with different batches of purified proteins with similar results.
Biotin-PIP3 interactions with GST-PDK1_1-556 or GST-PDK1_360-556 were assessed in the standard buffer. […]

[5] = replicate point 1, read-out: % Inhibition Point 1
[6] = replicate point 2, read-out: % Inhibition Point 2
[7] = single point, N=2, read-out: Inhibition at 1 μM (%)
[8] = absence of PIFtide, read-out: IC50 (nM), displacement of His-PDK1_1-556 interaction with GST-PDK1_360-556
[9] = with PIFtide, read-out: IC50 (nM), displacement of His-PDK1_1-556 interaction with GST-PDK1_360-556 with PIFtide

Compound | inhibition at 1 µM [1, 5] | inhibition at 1 µM [1, 6] | inhibition at 1 µM [1, 7] | Hill slope, PDK1 direct [1] | IC50 [1] | IC50 [2, 8] | IC50 [2, 9] | Tm (°C), temperature stabilization of PDK1_1-556 ([3]; compound 1 µM) | Tm (°C), temperature stabilization of PDK1_1-556 ([3]; compound 20 µM) | displacement of PIP3 from GST-PDK1_1-556 [4]
O=C(O[C@H]1[C@@H](OP(=O)(O)O)[C@H](OP(=O)(O)O)[C@@H](OP(=O)(O)O)[C@H](OP(=O)(O)O)[C@H]1OP(=O)(O)O)c1ccccc1 [HYG8, 2-O-benzoyl-IP5] | 97% | 98% | 98% | 1.39 | 24.5 nM | 33.3 nM | 19.5 nM | 11.7 °C and 11-15 °C | 13.7 °C and 13-16 °C | higher potency than IP5
CCCCO[C@H]1[C@@H](OP(=O)(O)O)[C@H](OP(=O)(O)O)[C@@H](OP(=O)(O)O)[C@H](OP(=O)(O)O)[C@H]1OP(=O)(O)O [HYG14, 2-O-butyl-IP5] | 98% | 101% | 100% | 1.61 | 16.2 nM | 29.6 nM | 29.4 nM | 15.2 °C and 11-15 °C | 16.5 °C and 13-16 °C | almost completely displaced
